Assay results from patent publication US20260274829A1, “NEW E3 UBIQUITIN LIGASE LIGAND, PROTEIN DEGRADATION AGENT AND USE THEREOF” (GLUETACS THERAPEUTICS (SHANGHAI) CO., LTD., priority 2023, published 2026).

Experiments:
Format in all cases: cell-based
CK1a = biological target: T1, CK1a (Homo sapiens, UniProt P48729+Q96SW2); test: Western blot degradation of CK1a in hPBMC
T1 construct: endogenous in cells; host or cells: hPBMC
Method: (§1) Conventional Western blot assay was performed to evaluate the effects of the compounds of the present disclosure on the expression of target proteins in cells.
(§2) • (1) Cell Seeding and Protein Harvesting: The selected cells were processed according to the cell seeding procedure and protein harvesting procedure in Table III-2.
(§3) • (2) To the collected supernatant, 5×SDS sample loading buffer was added, followed by denaturation at 95° C. for 5 minutes. The denatured samples were then separated by SDS-PAGE electrophoresis on a polyacrylamide gel. Proteins were transferred to a nitrocellulose membrane ([…] NC membrane), blocked with blocking buffer at room temperature for 1 hour, and subjected to antibody incubation and development procedures according to the antibody manufacturer's instructions (Cell Signaling Technology).
(§4) Half-Maximal Degradation Concentration value (the drug concentration required for degrading proteins by 50%, abbreviated as DC50) reads method: comparing the grayscale values of Western blot bands from drug-treated samples with those from blank DMSO-treated controls, and identifying the drug concentration range at which the grayscale value is half that of the DMSO-treated control bands.
(§5) DC50 values can be calculated using ImageJ software to measure grayscale values of Western blot bands from drug-treated samples. The concentration-response curve is fitted to estimate the drug concentration corresponding to half the grayscale value.
(§6) Target protein remaining (0%) refers to the percentage of target protein remaining in hPBMC cells after treatment with protein degrader compounds.
(§7) Calculation method for target protein remaining (0%): Use ImageJ software to measure grayscale values of Western blot bands from drug (protein degrader)-treated samples. The grayscale value of drug-treated bands is divided by that of internal control protein bands, and the resulting quotient is normalized to obtain the relative percentage of remaining target protein after protein degrader treatment.

WEE1 = biological target: T2, WEE1 (Homo sapiens, UniProt P30291+Q96SW2); test: Western blot degradation of WEE1 in hPBMC
T2 construct: endogenous in cells; host or cells: hPBMC
Method: as §1, §2, §3, §4, §5, §6, §7

IKZF3 = biological target: T3, IKZF3 (Homo sapiens, UniProt Q96SW2+Q9UKT9); test: Western blot degradation of IKZF3 in hPBMC
T3 construct: endogenous in cells; host or cells: hPBMC
Method: as §1, §2, §3, §4, §5, §6, §7

IKZF2 = biological target: T4, IKZF2 (Homo sapiens, UniProt Q96SW2+Q9UKS7); test: Western blot degradation of IKZF2 in hPBMC
T4 construct: endogenous in cells; host or cells: hPBMC
Method: as §1, §2, §3, §4, §5, §6, §7

GSPT1 = biological target: T5, GSPT1 (Homo sapiens, UniProt P15170+Q96SW2); test: Western blot degradation of GSPT1 in hPBMC
T5 construct: endogenous in cells; host or cells: hPBMC
Method: as §1, §2, §3, §4, §5, §6, §7

IKZF1 = biological target: T6, IKZF1 (Homo sapiens, UniProt Q13422+Q96SW2); test: Western blot degradation of IKZF1 in hPBMC
T6 construct: endogenous in cells; host or cells: hPBMC
Method: as §1, §2, §3, §4, §5, §6, §7

T1 sequence (P48729 whole entry): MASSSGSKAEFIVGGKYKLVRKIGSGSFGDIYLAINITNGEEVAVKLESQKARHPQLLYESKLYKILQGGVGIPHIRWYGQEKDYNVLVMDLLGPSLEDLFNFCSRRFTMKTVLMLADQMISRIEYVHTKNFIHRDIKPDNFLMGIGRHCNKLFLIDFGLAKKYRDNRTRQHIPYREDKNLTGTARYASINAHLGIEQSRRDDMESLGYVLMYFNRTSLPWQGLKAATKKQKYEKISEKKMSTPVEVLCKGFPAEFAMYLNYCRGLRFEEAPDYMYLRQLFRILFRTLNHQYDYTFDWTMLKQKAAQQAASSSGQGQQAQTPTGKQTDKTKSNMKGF
T1 sequence (Q96SW2 whole entry): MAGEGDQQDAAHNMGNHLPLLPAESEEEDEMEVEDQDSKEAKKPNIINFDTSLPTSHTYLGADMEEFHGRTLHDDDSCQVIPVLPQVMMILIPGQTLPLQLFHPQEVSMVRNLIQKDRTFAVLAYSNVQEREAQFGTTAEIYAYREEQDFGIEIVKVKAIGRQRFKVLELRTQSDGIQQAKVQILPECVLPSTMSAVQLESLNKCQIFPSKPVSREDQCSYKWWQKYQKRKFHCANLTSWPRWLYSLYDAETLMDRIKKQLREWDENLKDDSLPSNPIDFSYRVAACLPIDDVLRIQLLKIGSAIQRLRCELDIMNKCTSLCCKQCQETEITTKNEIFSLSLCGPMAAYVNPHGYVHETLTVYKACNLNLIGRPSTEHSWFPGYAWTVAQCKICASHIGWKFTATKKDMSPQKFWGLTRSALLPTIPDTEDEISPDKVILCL
T1 sequence (Q16531 whole entry partner): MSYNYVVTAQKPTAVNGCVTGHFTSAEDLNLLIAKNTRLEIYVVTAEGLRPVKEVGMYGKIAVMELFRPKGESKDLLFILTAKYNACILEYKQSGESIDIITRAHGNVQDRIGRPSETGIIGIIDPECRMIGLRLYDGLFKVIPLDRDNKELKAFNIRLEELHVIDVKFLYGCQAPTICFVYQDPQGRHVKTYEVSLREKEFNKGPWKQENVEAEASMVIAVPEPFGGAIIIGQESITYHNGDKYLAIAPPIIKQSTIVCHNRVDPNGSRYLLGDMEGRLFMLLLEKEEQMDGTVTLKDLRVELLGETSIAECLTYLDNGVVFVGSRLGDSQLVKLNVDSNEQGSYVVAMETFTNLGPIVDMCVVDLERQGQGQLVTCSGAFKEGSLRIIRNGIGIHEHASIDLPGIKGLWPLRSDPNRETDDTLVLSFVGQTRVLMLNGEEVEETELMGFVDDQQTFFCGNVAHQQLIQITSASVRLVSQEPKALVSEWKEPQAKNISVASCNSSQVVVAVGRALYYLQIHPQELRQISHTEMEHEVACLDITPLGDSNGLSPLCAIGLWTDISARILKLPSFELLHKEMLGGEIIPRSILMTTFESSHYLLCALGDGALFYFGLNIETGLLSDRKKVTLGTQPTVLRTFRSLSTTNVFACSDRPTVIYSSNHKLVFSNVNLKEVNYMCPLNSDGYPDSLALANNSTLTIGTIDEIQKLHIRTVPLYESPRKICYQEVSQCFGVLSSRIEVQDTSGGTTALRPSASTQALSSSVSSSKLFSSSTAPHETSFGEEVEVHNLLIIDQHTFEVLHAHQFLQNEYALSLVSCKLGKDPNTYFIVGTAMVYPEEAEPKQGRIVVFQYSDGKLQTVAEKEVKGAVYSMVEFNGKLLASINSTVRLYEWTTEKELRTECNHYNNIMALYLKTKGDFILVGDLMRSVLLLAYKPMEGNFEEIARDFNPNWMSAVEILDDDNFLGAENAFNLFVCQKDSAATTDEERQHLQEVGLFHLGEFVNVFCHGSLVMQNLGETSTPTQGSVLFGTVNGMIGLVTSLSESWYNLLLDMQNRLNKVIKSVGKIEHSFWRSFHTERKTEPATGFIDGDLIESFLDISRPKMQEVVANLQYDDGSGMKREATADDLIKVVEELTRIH
T3 sequence (Q9UKT9 whole entry): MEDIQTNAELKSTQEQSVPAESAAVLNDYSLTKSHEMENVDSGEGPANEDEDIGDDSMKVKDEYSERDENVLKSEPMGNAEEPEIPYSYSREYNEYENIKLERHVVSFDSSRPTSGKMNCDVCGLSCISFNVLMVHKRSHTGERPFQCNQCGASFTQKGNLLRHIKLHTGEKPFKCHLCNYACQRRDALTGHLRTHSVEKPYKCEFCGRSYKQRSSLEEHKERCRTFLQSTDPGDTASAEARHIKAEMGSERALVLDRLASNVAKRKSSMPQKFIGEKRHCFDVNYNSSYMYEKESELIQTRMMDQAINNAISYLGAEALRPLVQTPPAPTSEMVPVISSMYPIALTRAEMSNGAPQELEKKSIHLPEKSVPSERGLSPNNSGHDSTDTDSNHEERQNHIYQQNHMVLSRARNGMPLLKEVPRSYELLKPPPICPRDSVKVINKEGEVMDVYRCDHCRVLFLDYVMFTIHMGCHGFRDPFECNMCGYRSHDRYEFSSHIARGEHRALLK
T3 sequence (Q96SW2 whole entry): as the sequence (Q96SW2 whole entry) above
T3 sequence (Q16531 whole entry partner): as the sequence (Q16531 whole entry partner) above
T6 sequence (Q13422 whole entry): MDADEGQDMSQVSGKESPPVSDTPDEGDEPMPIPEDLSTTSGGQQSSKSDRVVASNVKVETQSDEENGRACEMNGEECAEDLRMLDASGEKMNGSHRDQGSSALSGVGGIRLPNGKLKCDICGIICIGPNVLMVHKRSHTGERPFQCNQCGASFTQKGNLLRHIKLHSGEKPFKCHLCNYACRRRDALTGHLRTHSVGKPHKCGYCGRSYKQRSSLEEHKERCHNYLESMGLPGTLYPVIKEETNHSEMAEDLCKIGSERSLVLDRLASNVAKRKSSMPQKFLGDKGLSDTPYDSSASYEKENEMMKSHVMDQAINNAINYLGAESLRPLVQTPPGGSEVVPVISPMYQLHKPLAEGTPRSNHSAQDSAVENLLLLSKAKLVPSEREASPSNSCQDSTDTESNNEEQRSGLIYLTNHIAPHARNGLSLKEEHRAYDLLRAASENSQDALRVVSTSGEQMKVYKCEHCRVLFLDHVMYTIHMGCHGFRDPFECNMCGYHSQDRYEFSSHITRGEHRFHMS
T6 sequence (Q96SW2 whole entry): as the sequence (Q96SW2 whole entry) above
T6 sequence (Q16531 whole entry partner): as the sequence (Q16531 whole entry partner) above
T4 sequence (Q9UKS7 whole entry): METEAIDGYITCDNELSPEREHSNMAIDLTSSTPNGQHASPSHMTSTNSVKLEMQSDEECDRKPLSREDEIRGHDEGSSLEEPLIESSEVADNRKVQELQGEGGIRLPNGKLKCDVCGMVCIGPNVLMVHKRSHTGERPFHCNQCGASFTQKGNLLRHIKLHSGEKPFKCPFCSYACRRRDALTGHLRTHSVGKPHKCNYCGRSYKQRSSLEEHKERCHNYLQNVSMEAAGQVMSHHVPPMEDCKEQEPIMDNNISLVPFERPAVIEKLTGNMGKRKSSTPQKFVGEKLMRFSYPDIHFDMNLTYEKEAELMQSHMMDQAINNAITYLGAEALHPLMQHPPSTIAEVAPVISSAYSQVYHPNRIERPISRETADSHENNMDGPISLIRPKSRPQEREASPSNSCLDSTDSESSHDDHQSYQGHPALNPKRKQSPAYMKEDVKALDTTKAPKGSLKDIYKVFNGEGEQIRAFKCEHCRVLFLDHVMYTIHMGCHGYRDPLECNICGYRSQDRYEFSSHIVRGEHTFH
T4 sequence (Q96SW2 whole entry): as the sequence (Q96SW2 whole entry) above
T4 sequence (Q16531 whole entry partner): as the sequence (Q16531 whole entry partner) above
T5 sequence (P15170 whole entry): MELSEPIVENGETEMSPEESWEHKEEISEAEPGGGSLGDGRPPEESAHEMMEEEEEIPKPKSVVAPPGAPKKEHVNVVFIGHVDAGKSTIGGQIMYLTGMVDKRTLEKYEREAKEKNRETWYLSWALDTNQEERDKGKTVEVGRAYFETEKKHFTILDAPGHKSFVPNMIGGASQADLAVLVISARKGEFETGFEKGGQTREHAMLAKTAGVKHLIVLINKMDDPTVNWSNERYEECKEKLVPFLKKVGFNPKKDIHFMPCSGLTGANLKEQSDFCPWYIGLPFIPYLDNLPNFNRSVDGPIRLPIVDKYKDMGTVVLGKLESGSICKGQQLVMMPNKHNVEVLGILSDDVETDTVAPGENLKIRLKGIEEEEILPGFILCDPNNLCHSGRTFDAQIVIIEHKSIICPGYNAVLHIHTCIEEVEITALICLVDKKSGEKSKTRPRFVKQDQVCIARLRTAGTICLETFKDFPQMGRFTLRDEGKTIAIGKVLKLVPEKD
T5 sequence (Q96SW2 whole entry): as the sequence (Q96SW2 whole entry) above
T5 sequence (Q16531 whole entry partner): as the sequence (Q16531 whole entry partner) above

SMILES	Degradation of substrate protein CK1a (substrate protein remaining %) (CK1a)	Degradation of substrate protein WEE1 (substrate protein remaining %) (WEE1)	Degradation of substrate protein IKZF3 (substrate protein remaining %) (IKZF3)	Degradation of substrate protein IKZF2 (substrate protein remaining %) (IKZF2)	Degradation of substrate protein GSPT1 (substrate protein remaining %) (GSPT1)	Degradation of substrate protein IKZF1 (substrate protein remaining %) (IKZF1)
O=C1CCC(c2cnc(CO)c(F)c2)C(=O)N1 (stereo not drawn) [GT-07049, 3-(5-fluoro-6-(hydroxymethyl)pyridin-3-yl)piperidine-2,6-dione]	A (A is defined as 0% ≤ substrate protein remaining % ≤ 80%)	B (B is defined as substrate protein remaining % > 80%)	A (A is defined as 0% ≤ substrate protein remaining % ≤ 80%)	A (A is defined as 0% ≤ substrate protein remaining % ≤ 80%)	A (A is defined as 0% ≤ substrate protein remaining % ≤ 80%)	B (B is defined as substrate protein remaining % > 80%)
O=C1CCC(c2cc(CO)ccn2)C(=O)N1 (stereo not drawn) [GT-07050, 3-(4-(hydroxymethyl)pyridin-2-yl)piperidine-2,6-dione]	A (A is defined as 0% ≤ substrate protein remaining % ≤ 80%)	B (B is defined as substrate protein remaining % > 80%)	A (A is defined as 0% ≤ substrate protein remaining % ≤ 80%)	B (B is defined as substrate protein remaining % > 80%)	A (A is defined as 0% ≤ substrate protein remaining % ≤ 80%)	A (A is defined as 0% ≤ substrate protein remaining % ≤ 80%)
O=C1CCC(c2cnc(F)c(CO)c2)C(=O)N1 (stereo not drawn) [GT-07074, 3-(6-fluoro-5-(hydroxymethyl)pyridin-3-yl)piperidine-2,6-dione]	B (B is defined as substrate protein remaining % > 80%)	B (B is defined as substrate protein remaining % > 80%)	A (A is defined as 0% ≤ substrate protein remaining % ≤ 80%)	A (A is defined as 0% ≤ substrate protein remaining % ≤ 80%)	A (A is defined as 0% ≤ substrate protein remaining % ≤ 80%)	B (B is defined as substrate protein remaining % > 80%)
O=C1CCC(c2ccc(CO)cn2)C(=O)N1 (stereo not drawn) [GT-07075, 3-(5-(hydroxymethyl)pyridin-2-yl)piperidine-2,6-dione]	B (B is defined as substrate protein remaining % > 80%)	B (B is defined as substrate protein remaining % > 80%)	A (A is defined as 0% ≤ substrate protein remaining % ≤ 80%)	A (A is defined as 0% ≤ substrate protein remaining % ≤ 80%)	A (A is defined as 0% ≤ substrate protein remaining % ≤ 80%)	B (B is defined as substrate protein remaining % > 80%)
NCc1cncc(N2CCC(=O)NC2=O)c1 [GT-07077, 1-(5-(aminomethyl)pyridin-3-yl)dihydropyrimidine-2,4(1H,3H)-dione]	B (B is defined as substrate protein remaining % > 80%)	B (B is defined as substrate protein remaining % > 80%)	B (B is defined as substrate protein remaining % > 80%)	B (B is defined as substrate protein remaining % > 80%)	A (A is defined as 0% ≤ substrate protein remaining % ≤ 80%)	B (B is defined as substrate protein remaining % > 80%)
O=C1CCN(c2cc(CCl)ccn2)C(=O)N1 [GT-07078, 1-(4-(chloromethyl)pyridin-2-yl)dihydropyrimidine-2,4(1H,3H)-dione]	B (B is defined as substrate protein remaining % > 80%)	B (B is defined as substrate protein remaining % > 80%)	B (B is defined as substrate protein remaining % > 80%)	B (B is defined as substrate protein remaining % > 80%)	A (A is defined as 0% ≤ substrate protein remaining % ≤ 80%)	B (B is defined as substrate protein remaining % > 80%)
O=C1CCC(Nc2ncccc2CO)C(=O)N1 (stereo not drawn) [GT-07197, 3-((3-(hydroxymethyl)pyridin-2-yl)amino)piperidine-2,6-dione]	A (A is defined as 0% ≤ substrate protein remaining % ≤ 80%)	B (B is defined as substrate protein remaining % > 80%)	B (B is defined as substrate protein remaining % > 80%)	B (B is defined as substrate protein remaining % > 80%)	A (A is defined as 0% ≤ substrate protein remaining % ≤ 80%)	B (B is defined as substrate protein remaining % > 80%)
NCc1ccnc(N2CCC(=O)NC2=O)c1 [GT-07198, 1-(4-(aminomethyl)pyridin-2-yl)dihydropyrimidine-2,4(1H,3H)-dione]	B (B is defined as substrate protein remaining % > 80%)	B (B is defined as substrate protein remaining % > 80%)	A (A is defined as 0% ≤ substrate protein remaining % ≤ 80%)	B (B is defined as substrate protein remaining % > 80%)	B (B is defined as substrate protein remaining % > 80%)	B (B is defined as substrate protein remaining % > 80%)
O=C1CCN(c2cc(CCl)c(F)cn2)C(=O)N1 [GT-07199, 1-(4-(chloromethyl)-5-fluoropyridin-2-yl)dihydropyrimidine-2,4(1H,3H)-dione]	A (A is defined as 0% ≤ substrate protein remaining % ≤ 80%)	B (B is defined as substrate protein remaining % > 80%)	A (A is defined as 0% ≤ substrate protein remaining % ≤ 80%)	A (A is defined as 0% ≤ substrate protein remaining % ≤ 80%)	A (A is defined as 0% ≤ substrate protein remaining % ≤ 80%)	B (B is defined as substrate protein remaining % > 80%)
O=C1CCC(Nc2cc(CO)ccn2)C(=O)N1 (stereo not drawn) [GT-07366, 3-((4-(hydroxymethyl)pyridin-2-yl)amino)piperidine-2,6-dione]	A (A is defined as 0% ≤ substrate protein remaining % ≤ 80%)	B (B is defined as substrate protein remaining % > 80%)	B (B is defined as substrate protein remaining % > 80%)	B (B is defined as substrate protein remaining % > 80%)	A (A is defined as 0% ≤ substrate protein remaining % ≤ 80%)	B (B is defined as substrate protein remaining % > 80%)
O=Cc1cnc(NC2CCC(=O)NC2=O)nc1 (stereo not drawn) [GT-07367, 2-((2,6-dioxopiperidin-3-yl)amino)pyrimidine-5-carbaldehyde]	A (A is defined as 0% ≤ substrate protein remaining % ≤ 80%)	B (B is defined as substrate protein remaining % > 80%)	B (B is defined as substrate protein remaining % > 80%)	B (B is defined as substrate protein remaining % > 80%)	A (A is defined as 0% ≤ substrate protein remaining % ≤ 80%)	B (B is defined as substrate protein remaining % > 80%)
